Data reported in US8470807B2, “Antioxidant” (Morinaga Milk Industry Co., Ltd., priority 2008, dated 2013).

Tests used:
[1] = test system: ApoE gene-deficient mice; assay: Inhibition of lipid peroxide formation in blood (serum TBARS/MDA) in ApoE gene-deficient mice; type: in vivo, mouse; conditions: 30 μg per day; for Amount of lipid peroxide in blood (MDA concentration): serum, 14 days after start of administration, oral once a day, high-cholesterol diet
From the text: The actions of inhibiting formation of a lipid peroxide of various test samples including the antioxidant of the present invention can be evaluated by using, as an index, the amount of a thiobarbituric acid (TBA) reactive substance (TBARS), for example. Specifically, it may be defined that the larger the amount of the TBARS, the larger the amount of a lipid peroxide formed.
Examples of the TEARS include malondialdehyde (MDA) which reacts with TBA under high-temperature and acidic conditions and is a natural by-product of a lipid peroxidation. An MDA-TBA adduct can be detected by measurement of an absorbance at 530 to 540 nm to perform colorimetric measurement of MDA.
Also, the action of inhibiting formation of a lipid peroxide of a test sample can be evaluated using ApoE gene-deficient mice, which are often used as model animals which develop arteriosclerosis by hypercholesterolemia (hyper-LDL-cholesterolemia) (for example, see Reference Document 1: “Saibokogaku (Cell Engineering),” Extra Issue, “Medical Experiment Manual” series, Strategy for Study of Arteriosclerosis+Hyperlipidemia, Shujunsha Co., 1st edition, 1st impression, published on Apr. 1, 1996, pp. 441-443).
Further, in the model mice, the lipid peroxide level is higher than that of normal mice, and formation of atherosclerotic lesions (plagues) in the artery is observed with time. Therefore, the action of inhibiting formation of a lipid peroxide of a test sample can be evaluated by administering the test sample to the model mice and measuring a lipid peroxide in blood of the model mice.
Those samples were separately dissolved in propylene glycol, and diluted with distilled water so as to obtain test solutions with the concentration of each compound of 30 μg/ml, and the solutions were used for a test. Note that physiological saline was used as a negative sample.
(§1) Six-week-old male ApoE gene-deficient mice (purchased from Japan SLC, Inc.) were preliminarily fed with a high-cholesterol diet (manufactured by Research Diets, Inc.) for 2 weeks and divided into groups each of 15 mice.
To mice of each group, the test solution including the test samples 1 to 6, control sample, or negative sample was separately administered orally once a day for […] using medical probes in an amount of 1 ml per 25 g of mouse body weight. At an early period after the start of administration (14 days after the start of administration), blood was collected from the tail vein of each mouse, and serum was separated. Then, the amount of TBARS was measured using OxiSelect TBARS Assay Kit (manufactured by […]). Meanwhile, as a control, blood was collected from each normal mouse in the same manner as above.

[2] = test system: ApoE gene-deficient mice; assay: Number of atherosclerotic lesions (plaques) in thoracic aorta of ApoE gene-deficient mice; type: in vivo, mouse; conditions: 40 days after start, oral once a day for 39 consecutive days; for Number of plaques formed in thoracic aorta: 1 ml of 30 μg/ml per 25 g body weight, Oil red staining
From the text: In addition, it is generally known that a primary lesion of arteriosclerosis is caused by oxidized LDL. Therefore, it is also possible to evaluate the action of reducing a risk of arteriosclerosis through inhibiting formation of a lipid peroxide of the test sample by counting the number of atherosclerotic lesions (plaques) in the artery of each model mouse treated with the test sample.
In Example 2, a cyclolanostane compound, a lophenol compound, and a mixture of the cyclolanostane compound and the lophenol compound were each evaluated on the effect of reducing a risk of arteriosclerosis through the effect of inhibiting a lipid peroxide by counting the number of atherosclerotic lesions (plaques) in the artery using known arteriosclerosis model animals, ApoE gene-deficient mice.
Test samples 1 to 6, a control sample, and a negative sample were prepared in the same way as in Example 1 above and were each used for a test.
as §1
To mice of each group, the sample solution including the test samples, control sample, or negative sample was separately administered orally once a day for 39 consecutive days using medical probes in an amount of 1 ml per 25 g of mouse body weight. Forty days after the start of administration, the thoracic aorta part was fixed with formalin and stained with Oil red, and the number of plaques was counted.

Row | Compound | Amount of lipid peroxide in blood (MDA concentration) [1] [µM] | Number of plaques formed in thoracic aorta [2] | effect of inhibiting formation of a lipid peroxide in blood compared with the negative sample ([1]; serum TBARS, 14 days after start of oral administration) | plaque formation compared with the negative sample [2]
1 | CCC(CCC(C)C1CCC2C3=CCC4C(C)C(O)CCC4(C)C3CCC21C)C(C)C (centres unmarked) [Test sample 5, 4-methylstigmast-7-en-3-ol] | 0.72 ± 0.02 | 5.6 ± 2.1 | – | –
2 | CC(C)CCC[C@@H](C)[C@H]1CC[C@H]2C3=CCC4C(C)C(O)CC[C@]4(C)[C@H]3CC[C@]12C (some centres unmarked) [Test sample 3, 4-Methylcholest-7-en-3-ol] | 0.71 ± 0.08 | 6.2 ± 1.9 | – | –
3 | CC(C)C(C)CCC(C)C1CCC2C3=CCC4C(C)C(O)CCC4(C)C3CCC21C (centres unmarked) [Test sample 4, 4-methylergost-7-en-3-ol] | 0.69 ± 0.05 | 5.0 ± 1.4 | – | –
4 | CC(C)CCCC(C)C1CCC2(C)C3CCC4C(C)(C)C(O)CCC45CC35CCC12C (centres unmarked) [Test sample 1, 9,19-Cyclolanostan-3-ol] | 0.62 ± 0.01 | 6.0 ± 0.7 | – | –
5 | CC[C@H](C)C(=O)O[C@H]1C[C@H](O)C=C2C=C[C@H](C)[C@H](CC[C@@H](O)C[C@@H](O)CC(=O)[O-])[C@H]21.[Na+] [Control sample, reference compound] | 0.93 ± 0.05 | 10.6 ± 3.2 | a significant decrease in amount of a lipid peroxide in blood was not observed | no significant difference
6 | C=C(CCC(C)C1CCC2(C)C3CCC4C(C)(C)C(O)CCC45CC35CCC12C)C(C)C (centres unmarked) [Test sample 2, 24-methylene-9,19-cyclolanostan-3-ol] | 0.5 ± 0.19 | 5.6 ± 1.5 | – | –
